Patent US5593984A, “Cephalosporin derivatives” (Yuhan Corporation, priority 1992, dated 1997)
Values after ≈ are worked out from the molar mass of the structure shown.

What was measured:
Format in all cases: cell-based
[1] = test system: B. subtilis ATCC 6633; assay: MIC by agar dilution, B. subtilis ATCC 6633; settings: Bacillus subtilis, ATCC6633, 17 h; B. subtilis ATCC 6633; agar dilution, Mueller-Hinton agar; read-out: Minimal Inhibitory Concentration (MIC)
Summary of the method: (§1)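 Two-fold dilutions of compound were dispersed in Mueller-Hinton agar, inoculated with test strain at 10^6 CFU per ml, and incubated at 35°-37° C. for 17±1 hours; MIC read from agar dilution.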

[2] = test system: Staph. aureus ATCC 6538P; assay: MIC by agar dilution, Staph. aureus ATCC 6538P; settings: Staphylococcus aureus, ATCC6538P, 17 h; Staph. aureus ATCC 6538P; agar dilution, Mueller-Hinton agar; read-out: Minimal Inhibitory Concentration (MIC)
Summary of the method: as §1

[3] = test system: Staph. aureus Smith; assay: MIC by agar dilution, Staph. aureus Smith; settings: Staphylococcus aureus, 17 h, Mueller-Hinton agar, read-out: Minimal Inhibitory Concentration (MIC)
Summary of the method: as §1

[4] = test system: Staph. aureus C-57; assay: MIC by agar dilution, Staph. aureus C-57; settings: Staphylococcus aureus, C57, 17 h, Mueller-Hinton agar, read-out: Minimal Inhibitory Concentration (MIC)
Summary of the method: as §1

[5] = test system: Staph. aureus C-5113; assay: MIC by agar dilution, Staph. aureus C-5113; settings: Staphylococcus aureus, C5113, 17 h, Mueller-Hinton agar, read-out: Minimal Inhibitory Concentration (MIC)
Summary of the method: as §1

[6] = test system: Staph. aureus C-5216; assay: MIC by agar dilution, Staph. aureus C-5216; settings: Staphylococcus aureus, C5216, 17 h, Mueller-Hinton agar, read-out: Minimal Inhibitory Concentration (MIC)
Summary of the method: as §1

[7] = test system: S. epidermidis ATCC 12228; assay: MIC by agar dilution, S. epidermidis ATCC 12228; settings: Staphylococcus epidermidis, ATCC12228, 17 h; S. epidermidis ATCC 12228; agar dilution, Mueller-Hinton agar; read-out: Minimal Inhibitory Concentration (MIC)
Summary of the method: as §1

[8] = test system: Ent. aerogenes IFO 12979; assay: MIC by agar dilution, Ent. aerogenes IFO 12979; settings: Klebsiella aerogenes, IFO12979, 17 h, Mueller-Hinton agar, read-out: Minimal Inhibitory Concentration (MIC)
Summary of the method: as §1

[9] = test system: Ent. cloacae IFO 13535; assay: MIC by agar dilution, Ent. cloacae IFO 13535; settings: Enterobacter cloacae, IFO13535, 17 h; Ent. cloacae IFO 13535; agar dilution, Mueller-Hinton agar; read-out: Minimal Inhibitory Concentration (MIC)
Summary of the method: as §1

[10] = test system: E. coli NIHJ JC-2; assay: MIC by agar dilution, E. coli NIHJ JC-2; settings: Escherichia coli, NIHJJC2, 17 h; E. coli NIHJ JC-2; agar dilution, Mueller-Hinton agar; read-out: Minimal Inhibitory Concentration (MIC)
Summary of the method: as §1

[11] = test system: E. coli No. 29; assay: MIC by agar dilution, E. coli No. 29; settings: Escherichia coli, 17 h; E. coli No. 29; agar dilution, Mueller-Hinton agar; read-out: Minimal Inhibitory Concentration (MIC)
Summary of the method: as §1

[12] = test system: E. coli DY-1; assay: MIC by agar dilution, E. coli DY-1; settings: Escherichia coli, DY1, 17 h; E. coli DY-1; agar dilution, Mueller-Hinton agar; read-out: Minimal Inhibitory Concentration (MIC)
Summary of the method: as §1

[13] = test system: K. pneumoniae NCTC 9632; assay: MIC by agar dilution, K. pneumoniae NCTC 9632; settings: Klebsiella pneumoniae, NCTC9632, 17 h; K. pneumoniae NCTC 9632; agar dilution, Mueller-Hinton agar; read-out: Minimal Inhibitory Concentration (MIC)
Summary of the method: as §1

[14] = test system: M. morganii DY-1; assay: MIC by agar dilution, M. morganii DY-1; settings: Morganella morganii, DY1, 17 h; M. morganii DY-1; agar dilution, Mueller-Hinton agar; read-out: Minimal Inhibitory Concentration (MIC)
Summary of the method: as §1

[15] = test system: Ps. aeruginosa ATCC 10145; assay: MIC by agar dilution, Ps. aeruginosa ATCC 10145; settings: Pseudomonas aeruginosa, ATCC10145, 17 h, Mueller-Hinton agar, read-out: Minimal Inhibitory Concentration (MIC)
Summary of the method: as §1

[16] = test system: Ps. aeruginosa NCTC 10490; assay: MIC by agar dilution, Ps. aeruginosa NCTC 10490; settings: Pseudomonas aeruginosa, NCTC10490, 17 h, Mueller-Hinton agar, read-out: Minimal Inhibitory Concentration (MIC)
Summary of the method: as §1

[17] = test system: Ps. aeruginosa DY-2; assay: MIC by agar dilution, Ps. aeruginosa DY-2; settings: Pseudomonas aeruginosa, DY2, 17 h; Ps. aeruginosa DY-2; agar dilution, Mueller-Hinton agar; read-out: Minimal Inhibitory Concentration (MIC)
Summary of the method: as §1

[18] = test system: P. vulgaris NCTC 8313; assay: MIC by agar dilution, P. vulgaris NCTC 8313; settings: Proteus vulgaris, NCTC8313, 17 h; P. vulgaris NCTC 8313; agar dilution, Mueller-Hinton agar; read-out: Minimal Inhibitory Concentration (MIC)
Summary of the method: as §1

[19] = test system: Prov. stuartii IFO 12930; assay: MIC by agar dilution, Prov. stuartii IFO 12930; settings: Providencia stuartii, IFO12930, 17 h, Mueller-Hinton agar, read-out: Minimal Inhibitory Concentration (MIC)
Summary of the method: as §1

[20] = test system: Ser. marcescens IFO 12648; assay: MIC by agar dilution, Ser. marcescens IFO 12648; settings: Serratia marcescens, IFO12648, 17 h; Ser. marcescens IFO 12648; agar dilution, Mueller-Hinton agar; read-out: Minimal Inhibitory Concentration (MIC)
Summary of the method: as §1

Structure (SMILES) | MIC [1] [µg/mL] | MIC [2] [µg/mL] | MIC [3] [µg/mL] | MIC [4] [µg/mL] | MIC [5] [µg/mL] | MIC [6] [µg/mL] | MIC [7] [µg/mL] | MIC [8] [µg/mL] | MIC [9] [µg/mL] | MIC [10] [µg/mL] | MIC [11] [µg/mL] | MIC [12] [µg/mL] | MIC [13] [µg/mL] | MIC [14] [µg/mL] | MIC [15] [µg/mL] | MIC [16] [µg/mL] | MIC [17] [µg/mL] | MIC [18] [µg/mL] | MIC [19] [µg/mL] | MIC [20] [µg/mL]
CO/N=C(\C(=O)N[C@@H]1C(=O)N2C(C(=O)[O-])=C(C[n+]3ccn4cccc4c3C)CS[C@H]12)c1nsc(N)n1 [Ex. 57, 7-β-[(Z)-2-(5-amino-1,2,4-thiadiazol-3-yl)-2-methoxyiminoacetamido]-3-(1-methylpyrrolo[1,2-a]-pyrazinium-2-yl)methyl-3-cephem-4-carboxylate] | 0.2 (≈ 0.378 µM) | 0.1 (≈ 0.189 µM) | 0.78 (≈ 1.48 µM) | 1.56 (≈ 2.95 µM) | 0.2 (≈ 0.378 µM) | 0.39 (≈ 0.738 µM) | 0.05 (≈ 0.0946 µM) | 0.025 (≈ 0.0473 µM) | 0.1 (≈ 0.189 µM) | 0.012 (≈ 0.0227 µM) | 0.025 (≈ 0.0473 µM) | 0.025 (≈ 0.0473 µM) | 0.012 (≈ 0.0227 µM) | 0.05 (≈ 0.0946 µM) | 0.78 (≈ 1.48 µM) | 0.2 (≈ 0.378 µM) | 1.56 (≈ 2.95 µM) | 0.05 (≈ 0.0946 µM) | 0.012 (≈ 0.0227 µM) | 0.025 (≈ 0.0473 µM)
CO/N=C(\C(=O)N[C@@H]1C(=O)N2C(C(=O)[O-])=C(C[n+]3ccn4c(CO)ccc4c3C)CS[C@H]12)c1nc(N)sc1Cl [Ex. 58, 7-β-[(Z)-2-(2-amino-5-chlorothiazol-4-yl)-2-methoxyiminoacetamido]-3-(6-hydroxymethyl-1-methylpyrrolo[1,2-a]-pyrazinium-2-yl)methyl-3-cephem-4-carboxylate] | 0.2 (≈ 0.338 µM) | 0.05 (≈ 0.0845 µM) | 0.39 (≈ 0.659 µM) | 3.13 (≈ 5.29 µM) | 0.78 (≈ 1.32 µM) | 0.78 (≈ 1.32 µM) | 0.1 (≈ 0.169 µM) | 0.1 (≈ 0.169 µM) | 0.78 (≈ 1.32 µM) | 0.2 (≈ 0.338 µM) | 0.05 (≈ 0.0845 µM) | 0.05 (≈ 0.0845 µM) | 0.1 (≈ 0.169 µM) | 0.39 (≈ 0.659 µM) | 1.56 (≈ 2.63 µM) | 0.78 (≈ 1.32 µM) | 3.13 (≈ 5.29 µM) | 0.012 (≈ 0.0203 µM) | 0.012 (≈ 0.0203 µM) | 0.2 (≈ 0.338 µM)
CO/N=C(\C(=O)N[C@@H]1C(=O)N2C(C(=O)[O-])=C(C[n+]3ccn4c(Br)ccc4c3C)CS[C@H]12)c1nsc(N)n1 [Ex. 59, 7-β-[(Z)-2-(5-amino-1,2,4-thiadiazol-3-yl)-2-methoxyiminoacetamido]-3-(6-bromo-1-methylpyrrolo[1,2-a]pyrazinium-2-yl)methyl-3-cephem-4-carboxylate] | 0.1 (≈ 0.165 µM) | 0.1 (≈ 0.165 µM) | 0.39 (≈ 0.642 µM) | 6.25 (≈ 10.3 µM) | 0.78 (≈ 1.28 µM) | 0.78 (≈ 1.28 µM) | 0.05 (≈ 0.0823 µM) | ≤ 0.006 | 0.2 (≈ 0.329 µM) | 0.025 (≈ 0.0412 µM) | 0.012 (≈ 0.0198 µM) | ≤ 0.006 | 0.025 (≈ 0.0412 µM) | 0.025 (≈ 0.0412 µM) | 1.56 (≈ 2.57 µM) | 1.56 (≈ 2.57 µM) | 12.5 (≈ 20.6 µM) | 0.012 (≈ 0.0198 µM) | ≤ 0.006 | 0.025 (≈ 0.0412 µM)
